Consider 3 compounds from patent US6887869B2, “Mikanolide derivatives, their preparation and therapeutic uses” (Societe de Conseils de Recherches et d'Applications …, priority 2001, dated 2005).

For assay [1], the system named is DNA polymerase of E. Coli (Klenow DNA polymerase enzyme). Description: Incorporation of deoxycytidine 5'-[alpha32P]-triphosphate into a DNA in the presence of DNA polymerase in an acellular system. Type of assay: biochemical. The conditions noted are these: concentration 100 μg/ml; labelled dCTP, 10 minutes at 37°, vs control. The procedure:
Incorporation of Deoxycytidine 5′-[alpha^32P]-triphosphate into a DNA in the Presence of DNA Polymerase in an Acellular System
Labelling of the DNA is carried out on a DNA fragment which incorporates nucleotides by way of the activity of the DNA polymerase enzyme. From these nucleotides, the dCTP is labelled with radioactive phosphorus (^32P).
Plasmidal DNA (pc DNA 3, invitrogen, Netherlands) is diluted to a concentration of 2 ng in 45 μl of TE solution (10 mM Tris-HCl, pH 8, 1 mM EDTA) and denatured by heating to 100° C. for 10 minutes before being replaced directly in ice. The denatured DNA is placed in the tube which contains the buffer solution of dATP, dGTP, dTTP, the Klenow DNA polymerase enzyme and the random primers (Rediprime II random prime labelling system, RPN 1633, RPN 1634, Amersham pharmacia biotech). 2 μl of Redivue deoxycytidine 5′-[alpha^32P]-triphosphate (250 μCi specific activity Amersham, Orsay, France) is added to start the reaction. The reaction is carried out in the presence or absence of the compound to be tested for 10 minutes at 37°. […] 10 μL is counted in 5 ml of scintillator (Instage1 plus and scintillation counter Packard, Rungis, France). The results are expressed as a percentage of the inhibition of incorporation of the labelled nucleotide in the sample with respect to the control: 100−[(DPM of the sample treated/control DPM)×100].

A further assay relates to HT29 tumor cells. The assay can be described thus: Incorporation of tritiated thymidine into DNA of HT29 cells in exponential growth phase. Type of assay: cell-based, human. To be noted: 3 hours treatment. The protocol:
(§1) DU-145 (human prostate cancer cells), HT29 (cancer of the colon) and Mia-PaCa2 (human pancreatic cancer cells) were acquired from the American Tissue Culture Collection (Rockville, Md., USA).
Incorporation of Thymidine Labelled with Tritium into DNA Cells in Exponential Growth Phase
HT29 cells are seeded in 96-well plates (culturPlate-96, Packard, Rungis, France) (4000 cells per well) with the medium (DME, Gibco BRL, Cergy-Pontoise, France) complemented with 10% of foetal calf serum, Gibco BRL, Cergy-Pontoise, France). On day 3, the medium is removed and replaced with medium containing the tritiated thymidine (5′-thymidine TRK.328, 1 mCi, 0.6 μCi/well, Amersham, Orsay, France) with or without the compound. The treatments are carried out for 3 hours. The medium is then removed and the cells are washed twice with 20 μl of PBS (Gibco BRL, Cergy-Pontoise, France). The lysis solution (SDS 1.25%, EDTA 5 mM) is added for 10 minutes at ambient temperature, then 75 μl of scintillating liquid (microscint 40, Packard, Rungis, France) is added. The plates are read using Topcount (Packard, Rungis, France). These tests are carried out in duplicate and the results are expressed with respect to the incorporation of the labelled nucleotide in the sample treated with the compound over the incorporation of the labelled nucleotide in the control sample (sample DPM/control DPM).

Assay [2] deals with DU-145 (human prostate cancer cells). The assay can be described thus: Measurement of cell proliferation (WST1), DU-145. Type of assay: cell-based. To be noted: DU-145, 96 hours treatment, read-out: IC50 inhibitory concentration, proliferation of DU-145 cell lines. The procedure: as §1
(§2) Measurement of Cell Proliferation
(§3) The cells placed in 80 μl of Dulbecco's modified Eagle medium (Gibco-BRL, Cergy-Pontoise, France) completed with 10% of foetal calf serum inactivated by heating (Gibco-BRL, Cergy-Pontoise, France), 50000 units/l of penicillin and 50 mg/l streptomycin (Gibco-BRL, Cergy-Pontoise, France), and 2 mM of glutamine (Gibco-BRL, Cergy-Pontoise, France) were seeded on a 96-well plate on day 0. The cells were treated on day 1 for 96 hours with increasing concentrations of each of the compounds to be tested. At the end of the of this period, quantification of the cell proliferation is evaluated by a calorimetric test based on the cleavage of the tetrazolium salt WST1 by mitochondrial dehydrogenases in viable cells leading to the formation of formazan (Boehringer Mannheim, Meylan, France). These tests are carried out in duplicate with 8 determinations per concentration tested. The products are solubilised in dimethylsulphoxide (DMSO) at 10^−2 M and finally used in culture with 0.5% DMSO.
(In general: Formazan colour is commonly taken as a measure of viable cells.)

Assay [3] has as its system Mia-PaCa2 (human pancreatic cancer cells). The assay can be described thus: Measurement of cell proliferation (WST1), Mia-PaCa2. Type of assay: cell-based. To be noted: MIA PaCa-2, Mia-Paca2, 96 hours treatment, read-out: IC50 inhibitory concentration, proliferation of Mia-Paca2 cell lines. The protocol:
as §1, §2, §3

For the compound `C[C@H]1C(=O)O[C@H]2C[C@]3(C)O[C@@H]3[C@@H]3O[C@@H]3C3=C[C@@H](OC3=O)[C@@H]21` [Dihydromikanolide, dihydromikanolide, reference compound], the “% inhibition of incorporation” value in assay [1] was found to be 77 ± 11%. In addition, the “incorporation of tritiated thymidine (sample dpm/control dpm)” value in the assay on HT29 tumor cells (25 μg/ml) came out at 0.98; in the assay on HT29 tumor cells (50 μg/ml), 0.22; in the assay on HT29 tumor cells (100 μg/ml), 0.14.
On to `CC1C(=O)OC2CC3(C)OC3C(O[Si](C)(C)C(C)(C)C)C(N(C)C)C3=CC(OC3=O)C21` (stereo not drawn) [Example 16, 11-(tert-butyldimethylsiloxy)-12-dimethylamino-3,8-dimethyl-5,9,15-trioxatetracyclo[11.2.1.0^2,6.0^8,10]hexadec-13(16)-ene-4,14-dione], for which the “% inhibition of incorporation” value in assay [1] is recorded as 70 ± 8%. Further, the figures for the “incorporation of tritiated thymidine (sample dpm/control dpm)” value in the assay on HT29 tumor cells (25 μg/ml), in the assay on HT29 tumor cells (50 μg/ml) and in the assay on HT29 tumor cells (100 μg/ml) were 0.71, 0.58 and 0.52, respectively. Further, the IC50 in assay [2] and in assay [3] was ≤ 30 µM throughout.
`CC1C(=O)OC2CC3(C)OC3C(OC(=O)Nc3csc4ccccc34)C(N(C)C)C3CC(OC3=O)C21` (stereo not drawn) [Example 43, 8-(dimethylamino)-3,10a-dimethyl-2,6-dioxodecahydro-4,7-methenofuro[3,2-c]oxireno[f]oxacycloundecin-9-yl 1-benzothien-3-ylcarbamate]: the IC50 in assay [2] and in assay [3] was ≤ 30 µM throughout.
